pIC50: −log10 of the molar value.
Experiments:
[1] = molecular target: T1, human recombinant HDAC6 (Homo sapiens, UniProt Q9UBN7); assay: HDAC6 enzyme activity inhibition test (HDAC Fluorometric Drug Discovery Kit); assay type: biochemical; conditions: for HDAC6 selectivity (fold): HDAC6 over HDAC1; for pIC50: human recombinant HDAC6, same protocol as HDAC1
T1 construct: purchased Calbiochem 382180
T1 sequence (Q9UBN7 1-1215): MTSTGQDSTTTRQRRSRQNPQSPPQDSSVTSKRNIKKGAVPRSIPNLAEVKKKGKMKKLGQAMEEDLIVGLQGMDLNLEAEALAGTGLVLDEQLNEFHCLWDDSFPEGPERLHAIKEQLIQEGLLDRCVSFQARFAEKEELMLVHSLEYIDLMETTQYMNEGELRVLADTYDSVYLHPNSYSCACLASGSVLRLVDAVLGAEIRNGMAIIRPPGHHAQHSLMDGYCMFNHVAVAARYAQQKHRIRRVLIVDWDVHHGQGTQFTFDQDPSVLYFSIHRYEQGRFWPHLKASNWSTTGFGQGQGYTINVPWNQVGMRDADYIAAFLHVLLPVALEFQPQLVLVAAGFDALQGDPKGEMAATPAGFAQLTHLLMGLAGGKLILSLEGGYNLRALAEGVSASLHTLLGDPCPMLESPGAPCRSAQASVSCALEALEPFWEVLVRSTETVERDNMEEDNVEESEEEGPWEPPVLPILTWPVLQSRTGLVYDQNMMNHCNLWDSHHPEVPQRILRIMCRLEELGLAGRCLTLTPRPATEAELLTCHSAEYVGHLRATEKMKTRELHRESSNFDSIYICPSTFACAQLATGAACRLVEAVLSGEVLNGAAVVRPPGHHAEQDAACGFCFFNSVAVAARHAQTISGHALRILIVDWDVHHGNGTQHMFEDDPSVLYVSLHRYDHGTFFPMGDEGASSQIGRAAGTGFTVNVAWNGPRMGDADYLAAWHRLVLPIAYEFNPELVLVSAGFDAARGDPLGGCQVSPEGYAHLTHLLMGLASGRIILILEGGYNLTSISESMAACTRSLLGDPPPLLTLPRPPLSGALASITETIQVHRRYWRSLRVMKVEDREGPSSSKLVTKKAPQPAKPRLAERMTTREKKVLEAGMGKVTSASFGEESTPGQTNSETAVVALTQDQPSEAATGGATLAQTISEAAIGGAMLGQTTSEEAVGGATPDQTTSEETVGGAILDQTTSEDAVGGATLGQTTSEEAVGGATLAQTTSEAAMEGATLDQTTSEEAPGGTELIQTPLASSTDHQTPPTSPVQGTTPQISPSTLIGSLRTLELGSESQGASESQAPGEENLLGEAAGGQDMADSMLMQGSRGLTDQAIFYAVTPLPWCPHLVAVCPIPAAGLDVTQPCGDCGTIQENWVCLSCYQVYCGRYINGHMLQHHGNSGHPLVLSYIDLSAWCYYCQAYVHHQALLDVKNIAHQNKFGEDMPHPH
Procedure: (§1) The following experiment was conducted to confirm the HDAC6 selectivity of the compound represented by Chemical Formula I of the present invention through the HDAC1 and HDAC6 enzyme activity inhibition test.
(§2) HDAC enzyme activity was measured using HDAC Fluorometric Drug Discovery Kit (BML-AK511, 516) manufactured by Enzo Life Science. For the HDAC1 enzyme activity test, human recombinant HDAC1 (BML-SE456) was used as an enzyme source and Fluor de Lys-®-″SIRT1 (BNL-KI177) was used as a substrate. The 5-fold diluted compound was dispensed in a 96-well plate, 0.3 μg of enzyme and 10 μM substrate were added to each well and reacted at 30° C. for 60 minutes, and Fluor de Lys® Developer II(BML-KI176) was added and reacted for 30 minutes to complete the reaction. Then, the fluorescence value (Ex 360, Em 460) was measured using a multiplate reader (Flexstation 3, Molecular Device). The HDAC6 enzyme was tested using the same protocol as the HDAC1 enzyme activity test method employing human recombinant HDAC6 (382180) from Calbiochem. For the final result, each […] value was calculated using the GraphPad Prism 4.0 program.

[2] = molecular target: T2, human recombinant HDAC1 (Homo sapiens, UniProt Q13547); assay: HDAC1 enzyme activity inhibition test (HDAC Fluorometric Drug Discovery Kit); assay type: biochemical; conditions: 30° C., 60 minutes, 10 μM substrate
T2 construct: purchased Enzo Life Science BML-SE456
Procedure: as §1, §2

T2 sequence (Q13547 whole entry): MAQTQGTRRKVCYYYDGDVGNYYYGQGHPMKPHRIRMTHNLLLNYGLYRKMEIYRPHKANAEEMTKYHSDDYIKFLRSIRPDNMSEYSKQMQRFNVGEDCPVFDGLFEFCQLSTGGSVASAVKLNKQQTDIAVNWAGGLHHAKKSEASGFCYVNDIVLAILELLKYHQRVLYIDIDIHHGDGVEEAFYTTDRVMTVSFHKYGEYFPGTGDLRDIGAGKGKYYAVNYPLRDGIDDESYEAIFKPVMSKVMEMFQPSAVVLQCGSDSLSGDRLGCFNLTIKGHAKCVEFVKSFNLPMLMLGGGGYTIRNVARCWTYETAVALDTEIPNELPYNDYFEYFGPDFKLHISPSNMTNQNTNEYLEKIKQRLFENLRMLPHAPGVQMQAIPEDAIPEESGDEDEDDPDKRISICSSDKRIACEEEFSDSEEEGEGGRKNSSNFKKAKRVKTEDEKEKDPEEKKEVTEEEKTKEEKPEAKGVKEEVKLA

Compound | HDAC6 selectivity (fold) [1] | pIC50 [1] | pIC50 [2]
O=c1oc(-c2cccc(N3CCN(C4COC4)CC3)c2)nn1Cc1ccc(-c2nnc(C(F)F)o2)cn1 [Compound 40, 3-[[5-[5-(difluoromethyl)-1,3,4-oxadiazol-2-yl]-2-pyridyl]methyl]-5-[3-[4-(oxetane-3-yl)piperazin-1-yl]phenyl]-1,3,4-oxadiazol-2-one] | 652 fold | 7.12 | < 4.30
CN1CCC(c2cccc(-c3nn(Cc4ccc(-c5nnc(C(F)F)o5)cn4)c(=O)s3)c2F)CC1 [Compound 41, 3-[[5-[5-(difluoromethyl)-1,3,4-oxadiazol-2-yl]-2-pyridyl]methyl]-5-[2-fluoro-3-(1-methyl-4-piperidyl)phenyl]-1,3,4-thiadiazol-2-one] | 909 fold | 7.26 | < 4.30
O=c1oc(-c2ccc3ccccc3n2)nn1Cc1ccc(-c2nnc(C(F)F)o2)cn1 [Compound 42, 3-[[5-[5-(difluoromethyl)-1,3,4-oxadiazol-2-yl]-2-pyridyl]methyl]-5-(2-quinolyl)-1,3,4-oxadiazol-2-one] | 975 fold | 7.29 | < 4.30
O=c1sc(-c2ccccc2)nn1Cc1ccc(-c2nnc(C(F)F)o2)cn1 [Compound 43, 3-[[5-[5-(difluoromethyl)-1,3,4-oxadiazol-2-yl]-2-pyridyl]methyl]-5-phenyl-1,3,4-thiadiazol-2-one] | 359 fold | 6.86 | < 4.30
O=c1sc(-c2cccs2)nn1Cc1ccc(-c2nnc(C(F)F)o2)cn1 [Compound 44, 3-[[5-[5-(difluoromethyl)-1,3,4-oxadiazol-2-yl]2-pyridyl]methyl]-5-(2-thienyl)-1,3,4-thiadiazol-2-one] | 704 fold | 7.15 | < 4.30
FC(F)c1nnc(-c2ccc(Cn3nc(-c4ccccc4)oc3=S)nc2)o1 [Compound 45, 3-((5-(5-(difluoromethyl)-1,3,4-oxadiazol-2-yl)pyridin-2-yl)methyl)-5-phenyl-1,3,4-oxadiazol-2(3H)-thione] | 543 fold | 7.04 | < 4.30
FC(F)c1nnc(-c2ccc(Cn3nc(-c4ccccn4)oc3=S)nc2)o1 [Compound 46, 3-[[5-[5-(difluoromethyl)-1,3,4-oxadiazol-2-yl]-2-pyridyl]methyl]-5-(2-pyridyl)-1,3,4-oxadiazol-2-thione] | 1171 fold | 7.37 | < 4.30
Fc1cc(-c2nnc(C(F)F)o2)cnc1Cn1nc(-c2ccccn2)oc1=S [Compound 47, 3-[[5-[5-(difluoromethyl)-1,3,4-oxadiazol-2-yl]-3-fluoro-2-pyridyl]methyl]-5-(2-pyridyl)-1,3,4-oxadiazol-2-thione] | 1548 fold | 7.49 | < 4.30
Fc1cccc(-c2nn(Cc3ncc(-c4nnc(C(F)F)o4)cc3F)c(=S)o2)c1 [Compound 48, 3-[[5-[5-(difluoromethyl)-1,3,4-oxadiazol-2-yl]-3-fluoro-2-pyridyl]methyl]-5-(3-fluorophenyl)-1,3,4-oxadiazol-2-thione] | 437 fold | 6.94 | < 4.30

Further lines, results first:

HDAC6 selectivity (fold) [1] | pIC50 [1] | pIC50 [2] | Compound
656 fold | 7.12 | < 4.30 | O=c1sc(-c2ccccn2)nn1Cc1ccc(-c2nnc(C(F)F)o2)cn1 [Compound 49, 3-[[5-[5-(difluoromethyl)-1,3,4-oxadiazol-2-yl]-2-pyridyl]methyl]-5-(2-pyridyl)-1,3,4-thiadiazol-2-one]
588 fold | 7.07 | < 4.30 | FC(F)c1nnc(-c2ccc(Cn3nc(-c4cccs4)oc3=S)nc2)o1 [Compound 50, 3-[ [5-[5-(difluoromethyl) -1,3,4-oxadiazol-2-yl] -2-pyridyl]methyl] -5-(2-thienyl)-1,3,4-oxadiazol-2-thione]
601 fold | 7.08 | < 4.30 | Fc1cc(-c2nnc(C(F)F)o2)cnc1Cn1nc(-c2cccs2)oc1=S [Compound 51, 3-[[5-[5-(difluoromethyl)-1,3,4-oxadiazol-2-yl]-3-fluoro-2-pyridyl]methyl]-5-(2-thienyl)-1,3,4-oxadiazol-2-thione]
473 fold | 6.98 | < 4.30 | FC(F)c1nnc(-c2ccc(Cn3nc(-c4cccnc4)oc3=S)nc2)o1 [Compound 52, 3-[[5-[5-(difluoromethyl)-1,3,4-oxadiazol-2-yl]-2-pyridyl]methyl]-5-(3-pyridyl)-1,3,4-oxadiazol-2-thione]
560 fold | 7.05 | < 4.30 | Fc1cc(-c2nnc(C(F)F)o2)cnc1Cn1nc(-c2cnccn2)oc1=S [Compound 53, 3-[[5-[5-(difluoromethyl)-1,3,4-oxadiazol-2-yl]-3-fluoro-2-pyridyl]methyl]-5-pyrazine-2-yl-1,3,4-oxadiazol-2-thione]
444 fold | 6.95 | < 4.30 | O=c1sc(-c2ccccc2F)nn1Cc1ccc(-c2nnc(C(F)F)o2)cn1 [Compound 54, 3-[[5-[5-(difluoromethyl)-1,3,4-oxadiazol-2-yl]-2-pyridyl]methyl]-5-(2-fluorophenyl)-1,3,4-thiadiazol-2-one]
634 fold | 7.10 | < 4.30 | CC(C)N1CCC(c2ccc(-c3nn(Cc4ccc(-c5nnc(C(F)F)o5)cn4)c(=O)s3)cc2)CC1 [Compound 55, 3-[[5-[5-(difluoromethyl)-1,3,4-oxadiazol-2-yl]-2-pyridyl]methyl]-5-[4-(1-isopropyl-4-piperidyl)phenyl]-1,3,4-thiadiazol-2-one]
422 fold | 6.93 | < 4.30 | O=c1sc(-c2ccc(C3CCN(C4COC4)CC3)cc2)nn1Cc1ccc(-c2nnc(C(F)F)o2)cn1 [Compound 56, 3-[[5-[5-(difluoromethyl)-1,3,4-oxadiazol-2-yl]-2-pyridyl]methyl]-5-[4-[1-(oxetane-3-yl)-4-piperidyl]phenyl]-1,3,4-thiadiazol-2-one]
954 fold | 7.28 | < 4.30 | CC(C)N1CCC(c2cccc(-c3nn(Cc4ccc(-c5nnc(C(F)F)o5)cn4)c(=O)s3)c2F)CC1 [Compound 57, 3-[[5-[5-(difluoromethyl)-1,3,4-oxadiazol-2-yl]-2-pyridyl]methyl]-5-[2-fluoro-3-(1-isopropyl-4-piperidyl)phenyl]-1,3,4-thiadiazol-2-one]
643 fold | 7.11 | < 4.30 | O=c1sc(-c2cccc(C3CCN(C4COC4)CC3)c2F)nn1Cc1ccc(-c2nnc(C(F)F)o2)cn1 [Compound 58, 3-[[5-[5-(difluoromethyl)-1,3,4-oxadiazol-2-yl]-2-pyridyl]methyl]-5-[2-fluoro-3-[1-(oxetane-3-yl)-4-piperidyl]phenyl]-1,3,4-thiadiazol-2-one]
669 fold | 7.13 | < 4.30 | Cc1nc(-c2nn(Cc3ccc(-c4nnc(C(F)F)o4)cn3)c(=S)o2)cs1 [Compound 59, 3-[[5-[5-(difluoromethyl)-1,3,4-oxadiazol-2-yl]-2-pyridyl]methyl]-5-(2-methylthiazol-4-yl)-1,3,4-oxadiazol-2-thione]

From patent US20260327214A1, “1,3,4-OXADIAZOLE DERIVATIVE COMPOUNDS AS HISTONE DEACETYLASE 6 INHIBITOR, AND USES THEREOF” (CHONG KUN DANG PHARMACEUTICAL CORP., priority 2022, published 2026)
